System: T1, β-glucosidase
T1 construct: gene beta-D-glucoside glucohydrolase; not purified to one protein, isoenzyme not defined
Test: p-nitrophenol release at […] nm; nonlinear fit (Solver)
Assay type: biochemical, Aspergillus sp.
Settings: free enzyme, partially purified extract; acetate buffer, optimal pH (4.5) and temperature (65 °C optimum)

O=[N+]([O-])c1ccc(O[C@@H]2O[C@H](CO)[C@@H](O)[C@H](O)[C@H]2O)cc1 [4-Nitrophenyl-β-D-glucopyranoside] was tested, and the Km was 1600 µM.

From publication PMC3170910, “Screening of Supports for the Immobilization of β-Glucosidase” (Enzyme Research, 2011)
